# In PMC9346089 (The FEBS journal, 2022):
# Key:
# Details in all cases: 5 uM vitamin K epoxide in medium; HEK293 VKORC1/VKORL1 knockout
# S3-TM5/Trx = assay: cell-based gamma-carboxylation reporter; parameters: species or system Synechococcus sp. JA-2-3B'a(2-13)
# S3 = assay: cell-based gamma-carboxylation reporter; parameters: species or system Synechococcus sp. JA-2-3B'a(2-13)
# M1 = test system: M1
# M2 = test system: M2
structure (smiles),measurement,setting,value
CC(=O)CC(c1ccccc1)c1c(O)c2ccccc2oc1=O (stereo not shown) [warfarin],IC50,S3-TM5/Trx,1110 nM
same,IC50,S3,190 nM
same,IC50,M1,400 nM
same,IC50,M2,1870 nM
